Test results as given in patent US8642580B2, “Combined therapy against tumors comprising substituted acryloyl distamycin derivatives and platinum derivatives” (priority 2000, dated 2014).

Columns and labels:
[1] = system: disseminated L1210 murine leukemia; experiment: Antileukemic activity against disseminated L1210 murine leukemia; format: in vivo; conditions: for ILS % (increase in life span): L1210 10^5 cells/mouse IV day 0; for ILS % (increase in life span) / Tox (number of toxic deaths/number of mice): PNU 166196 0.26 mg/kg/day iv days +1,2, combination same doses and schedule; for Toxicity (in words): single agents: cisplatin 5.9 mg/kg day +3, carboplatin 135 mg/kg day +3, PNU 166196 0.26 mg/kg days +1,2
[2] = system: human colon carcinoma HCT-116 (low/medium GST and MMR deficiency); experiment: Antitumor activity against subcutaneous implanted HCT-116 human colon carcinoma; format: in vivo; conditions: for Log cell Kill total / WL % day of nadir / WL % / Tumor free/total mice: IV q7dx3; for Log cell Kill total / WL % day of nadir / WL % / T/C % (tumor regression) / Tumor free/total mice: PNU 166196 0.4 mg/kg, cisplatin 2 mg/kg; for WL %: at nadir; for T/C % (tumor regression): day 20 after treatment, IV q7dx3 from day 7 after implant, PNU 166196 48 hours after cisplatin, NCI: T/C ≦ 42 active; for Tumor free/total mice: on day 40 after tumor implant
[3] = Table 1, cisplatin 5.9 mg/kg iv day +3
[4] = Table 2, carboplatin 135 mg/kg iv day +3

Compound	ILS % (increase in life span) [1, 3] [%]	Log cell Kill total [2]	WL % day of nadir [2] [days]	WL % [2] [%]	T/C % (tumor regression) [2] [%]	Tumor free/total mice [2]	ILS % (increase in life span) [1, 4] [%]	Tox (number of toxic deaths/number of mice) [1, 4]	Toxicity (in words) [1]	Tox (number of toxic deaths/number of mice) [1, 3]	Toxicity (in words) ([2]; single agents: cisplatin 2 mg/kg q7dx3, PNU 166196 0.4 mg/kg q7dx3)
N.N.[Cl][Pt][Cl] [Cisplatin, cisplatin, reference compound]	67	0	24	12	92	0/7					
N.N.O=C([O-])C1(C(=O)[O-])CCC1.[Pt+2] [Carboplatin, carboplatin, reference compound]							50	0/10	without toxicity		
C=C(Br)C(=O)Nc1cc(C(=O)Nc2cc(C(=O)Nc3cc(C(=O)Nc4cc(C(=O)NCCNC(=N)N)n(C)c4)n(C)c3)n(C)c2)n(C)c1.Cl [PNU 166196, N-(5-{[(5-{[(5-{[(2-{[amino(imino)methyl]amino}ethyl)amino]carbonyl}-1-methyl-1H-pyrrol-3-yl)amino]carbonyl}-1-methyl-1H-pyrrol-3-yl)amino]carbonyl}-1-methyl-1H-pyrrol-3-yl)-4-[(2-bromoacryloyl)amino]-1-methyl-1H-pyrrole-2-carboxamide hydrochloride]	33	0.15	29	12	61	0/8	33	0/10	without toxicity	0/10	without toxicity
